# From paper PMC6767236, “Selective Cannabinoid 2 Receptor Agonists as Potential Therapeutic Drugs for the Treatment of Endotoxin-Induced Uveitis” (Molecules, 2019)
# Where two headings read alike, the source gives them in different places.
# Assays:
# [1] = Saturation solubility in selected solvents/vehicles; type: physicochemical; conditions: for solubility: thermodynamic from solid, n = 1; for pH of solution in HP-beta-CD 15% / pH of solution in PEG400 30% / pH of solution in Tocrisolve / pH of solution in Mixed Micelles: solubility sample
# Protocol: Saturation Solubility (= Thermodynamic Solubility)
# Approximately 8.6 mg test compound per milliliter solvent/vehicle was stirred in HPLC vials (9 × 12 × 32 mm, Waters) at 350 rpm for 15 h. Samples of 10 µL each were taken and microscopically examined for presence of solid particles. If the active pharmacological ingredient (API) dissolved completely, more solid API was added, and stirring was continued for another 15 h. Addition of solid material was repeated up to 96 h or until residual solid particles could be detected. Samples of 0.5 mL were then transferred to Eppendorf Ultrafree filter tubes (Filter: PVDF 0.22 µm) and centrifuged at 14,500 rpm for 10 min. The filtrates were diluted in ethanol and analyzed for content by UPLC. The measurements were also conducted in 0.05 M aqueous phosphate buffer, fasted (FaSSIF), and fed (FeSSIF) simulated gastrointestinal fluid. […]
# [2] = phosphate buffer pH 6.5; * previously published; cited from earlier work
# [3] = biological target: T1, human CB1R (Homo sapiens, UniProt P21554); conditions: read-out: hCB1R: beta arrestin EC50; * previously published; cited from earlier work
# T1 construct: host or cells: CHO
# T1 sequence (P21554 whole entry): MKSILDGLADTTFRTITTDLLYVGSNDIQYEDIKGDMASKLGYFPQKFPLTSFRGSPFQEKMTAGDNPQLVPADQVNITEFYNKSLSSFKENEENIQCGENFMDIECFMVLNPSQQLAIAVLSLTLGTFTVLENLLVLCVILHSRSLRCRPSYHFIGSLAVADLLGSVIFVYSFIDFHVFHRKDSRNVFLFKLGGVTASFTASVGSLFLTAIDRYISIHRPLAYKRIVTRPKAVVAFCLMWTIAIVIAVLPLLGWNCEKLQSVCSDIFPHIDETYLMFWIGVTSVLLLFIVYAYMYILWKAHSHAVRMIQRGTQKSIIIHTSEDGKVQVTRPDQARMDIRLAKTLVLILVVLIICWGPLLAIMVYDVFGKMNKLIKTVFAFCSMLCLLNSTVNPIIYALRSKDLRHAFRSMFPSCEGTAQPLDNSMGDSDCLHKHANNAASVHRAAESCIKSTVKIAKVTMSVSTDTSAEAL
# [4] = Protocol: The GSH adduct formation test aims for the identification of molecules which bear the risk of forming reactive metabolites that might trigger drug-induced liver injury and drug-induced hypersensitivity reactions in patients. The compounds are incubated with liver microsomes to assess reactive metabolite formation. Glutathione is added as a nucleophile to convert eventually formed reactive species into a stable conjugate that can be analyzed by mass spectrometry. Details on the assay have been reported in Brink et al. (2014). […]
# [5] = human hepatocytes; * previously published; cited from earlier work
# [6] = biological target: mouse CB2R (Mus musculus, UniProt P47936); assay: cell-based; type: cell-based; set-up: bgal (beta-galactosidase fragment of the PathHunter system, named only in the cell line's name); host or cells: CHO-K1 (CHOK1mCB2_bgal)
# mouse CB2R, sequence (P47936 whole entry, the tested form may be a part): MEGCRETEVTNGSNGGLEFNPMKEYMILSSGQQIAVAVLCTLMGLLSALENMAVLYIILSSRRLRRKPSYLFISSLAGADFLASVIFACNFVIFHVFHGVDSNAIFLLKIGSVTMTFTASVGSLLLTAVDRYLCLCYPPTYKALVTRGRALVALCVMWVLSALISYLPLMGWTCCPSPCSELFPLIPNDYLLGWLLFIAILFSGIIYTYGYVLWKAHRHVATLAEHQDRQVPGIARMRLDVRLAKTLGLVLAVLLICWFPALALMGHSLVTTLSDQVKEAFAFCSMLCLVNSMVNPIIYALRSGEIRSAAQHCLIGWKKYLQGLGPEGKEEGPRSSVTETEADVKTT
# Protocol: (§1) Assays were carried out using the PathHunter hCB1_bgal, hCB2_bgal, or mCB2_bgal CHOK1 β-arrestin recruitment assay kit (DiscoveRx, Fremont, CA, USA) as previously described. A total of 5000 cells per well were seeded in 384-well plates (Perkin Elmer, MA, USA) containing 20 μL cell culture medium and incubated for 16–18 h at 37 °C and 5% CO2. Cells were stimulated with 10 μM of each agonist or 11 increasing concentrations and incubated for 90 min at 37 °C and 5% CO2. […] The cells were incubated for 90 min at 37 °C and 5% CO2. Compounds in DMSO stock solutions were added using a HP D300 Digital Dispenser (Tecan, Mannedorf, Switzerland). The final concentration of organic solvent per assay point was ≤ 0.1%. The PathHunter Detection mixture was used, according to the manufacturer’s protocol, to determine the β-galactosidase enzyme activity. Detection mixture, 12 μL per well, was added and the plate was incubated for 1 h in the dark at room temperature. Chemiluminescence, indicated as relative light unit, was measured on an EnVision multilabel plate reader (Perkin Elmer, MA, USA).
# [7] = cited from earlier work; for PAMPA Peff: * at end of cell: previously published; for PAMPA %Acceptor / PAMPA %Donor / PAMPA %Membrane: * previously published
# [8] = biological target: CYP2C9 (Homo sapiens, UniProt P11712); assay: Cytochrome P450 inhibition assay, CYP2C9; type: in vitro ADME
# CYP2C9, sequence (P11712 whole entry): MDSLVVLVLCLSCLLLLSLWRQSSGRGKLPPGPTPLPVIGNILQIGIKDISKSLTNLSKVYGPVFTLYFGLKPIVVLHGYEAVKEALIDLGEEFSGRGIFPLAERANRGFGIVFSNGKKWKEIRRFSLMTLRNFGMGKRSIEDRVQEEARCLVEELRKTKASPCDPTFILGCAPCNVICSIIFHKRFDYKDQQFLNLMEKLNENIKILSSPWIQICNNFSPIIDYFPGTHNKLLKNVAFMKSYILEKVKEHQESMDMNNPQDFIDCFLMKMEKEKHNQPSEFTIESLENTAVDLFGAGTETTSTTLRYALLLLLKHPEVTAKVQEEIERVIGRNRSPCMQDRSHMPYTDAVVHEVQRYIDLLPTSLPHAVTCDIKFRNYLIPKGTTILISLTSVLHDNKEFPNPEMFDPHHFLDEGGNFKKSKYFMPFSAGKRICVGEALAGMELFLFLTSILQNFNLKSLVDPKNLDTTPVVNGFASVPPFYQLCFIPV
# [9] = * previously published; cited from earlier work
# [10] = tested on: human P-gp; conditions: human P-gp; * previously published; cited from earlier work
# [11] = biological target: T2, human CB2R (Homo sapiens, UniProt P34972); assay: PathHunter β-arrestin recruitment assay, hCB2R; type: cell-based
# T2 construct: bgal (beta-galactosidase fragment of the PathHunter system, named only in the cell line's name); host or cells: CHO-K1 (CHOK1hCB2_bgal)
# T2 sequence (P34972 whole entry, the tested form may be a part): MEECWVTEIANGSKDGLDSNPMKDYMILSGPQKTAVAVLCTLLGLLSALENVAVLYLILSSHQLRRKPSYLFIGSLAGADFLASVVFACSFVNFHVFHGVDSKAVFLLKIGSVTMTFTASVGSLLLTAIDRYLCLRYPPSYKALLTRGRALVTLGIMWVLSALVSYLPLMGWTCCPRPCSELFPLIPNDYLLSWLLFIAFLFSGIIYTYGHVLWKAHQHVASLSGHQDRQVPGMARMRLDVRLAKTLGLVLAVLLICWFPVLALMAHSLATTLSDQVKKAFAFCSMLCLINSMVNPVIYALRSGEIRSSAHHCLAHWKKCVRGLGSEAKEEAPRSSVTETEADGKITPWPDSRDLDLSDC
# Protocol: as §1
# [12] = Chemical stability (aqueous stability assay ASTA); type: physicochemical; conditions: aqueous buffer, 37 °C
# Protocol: Chemical Stability (= Aqueous Stability Assay ASTA)
# ASTA is a fully automated assay to determine the 2 h stability of a molecule in aqueous conditions, over the pH range 1–10. Five different pH values are used and the solutions are heated at 37 °C. A compound is classified unstable if, after 2 h, less than 90% of the initial concentration can be found. Samples are first prepared on incubation plates and shaken initially for 10 min at 37 °C.
# Solutions are then transferred to a filter plate (Millipore MSGVN2250, pore size 0.22 µm) and filtrated into V-bottom plates (from ABGene, AB-0800) that are heat-sealed prior to HPLC analysis. The procedure is performed a second time. However, the incubation time at 37 °C for the second plate is increased by 2 h. Samples are taken at time point 0 and 2 h and analyzed by HPLC. […]
# [13] = aqueous with cosolvent or surfactant or cyclodextrin, in demin. water, HU308 crystalline material, read-out: Solubility in HP-beta-CD 15%
# [14] = aqueous with cosolvent or surfactant or cyclodextrin, RO6871085 as hydrochloride salt, HU308 crystalline material, > = saturation not achieved, read-out: Solubility in Tocrisolve
# [15] = oil or lipid, RO6871085 as hydrochloride salt, HU308 crystalline material, > = saturation not achieved, read-out: Solubility in MCT (Miglyol 812)
# [16] = RO6871085 as hydrochloride salt
# [17] = aqueous with cosolvent or surfactant or cyclodextrin, in demin. water, HU308 crystalline material, read-out: Solubility in PEG400 30%
# [18] = pH 6, aqueous with cosolvent or surfactant or cyclodextrin, 200 mM glycocholic acid, 200 mM lecithin in water for injection, pH 6, RO6871085 as hydrochloride salt, read-out: Solubility in Mixed Micelles
# [19] = read-out: mouse CB2R: beta arrestin EC50
# [20] = pH 1, 2 h, read-out: Chemical Stability in Aqueous Buffer at pH 1 (% remaining after 2 h at 37 °C)
# [21] = pH 4, 2 h, read-out: Chemical Stability in Aqueous Buffer at pH 4 (% remaining after 2 h at 37 °C)
# [22] = pH 6.5, 2 h, read-out: Chemical Stability in Aqueous Buffer at pH 6.5 (% remaining after 2 h at 37 °C)
# [23] = pH 8, 2 h, read-out: Chemical Stability in Aqueous Buffer at pH 8 (% remaining after 2 h at 37 °C)
# [24] = pH 10, 2 h, read-out: Chemical Stability in Aqueous Buffer at pH 10 (% remaining after 2 h at 37 °C)
SMILES,solubility in Tocrisolve 100 [1],"solubility [1, 13] [µg/mL]","solubility [1, 14] [µg/mL]","solubility [1, 15] [µg/mL]",pH of solution in HP-beta-CD 15% [1],pH of solution in PEG400 30% [1],"pH of solution in Tocrisolve [1, 16]",Kinetic Solubility [2] [µg/mL],GSH Adduct Formation in Human Liver Microsomes [4],Hepatocyte Clearance human [5] [μL/min/Mio cells],mouse CB2R: beta arrestin efficacy [6] [%],PAMPA Peff [7],PAMPA %Acceptor [7] [%],PAMPA %Donor [7] [%],PAMPA %Membrane [7] [%],"solubility [1, 17] [µg/mL]","solubility [1, 18] [µg/mL]","pH of solution in Mixed Micelles [1, 16]","EC50 [6, 19] [µM]","remaining at 2 h [12, 20] [%]",other results
"CCCCCCC(C)(C)c1cc(OC)c([C@H]2C=C(CO)[C@H]3C[C@@H]2C3(C)C)c(OC)c1 [HU308, {(1S,4S,5S)-4-[2,6-Dimethoxy-4-(2-methyloctan-2-yl)phenyl]-6,6-dimethylbicyclo[3.1.1]hept-2-en-2-yl}methanol, reference compound]",considerably lower,20,1600,> 10300,5.7,5.1,6.1,< 0.75,no adduct,8.3,76,2.53 10*-6 cm/s,3,23,74,–,–,–,–,–,EC50 [3]: > 10 µM; EC50 [6]: 0.592 µM; IC50 [8]: > 50 µM
"CNC(=O)[C@@H](NC(=O)c1cc(OCC2(C)COC2)c(C2CC2)cn1)C(C)(C)C [RO6851228, 5-Cyclopropyl-N-[(2S)-3,3-dimethyl-1-(methylamino)-1-oxobutan-2-yl]-4-[(3-methyloxetan-3-yl)methoxy]pyridine-2-carboxamide]",good solvent,35500,15000,> 19000,7.6,7.4,7.3,–,no adduct,12,–,5.17 10*-6 cm/s,19,79,3,5900,> 1600,6.6,> 30,93,"Plasma Protein Binding: FREE Fraction human [9]: 9.6%; activity in mouse CB2R β-arrestin assay [6]: not active; P-glycoprotein-Mediated Efflux Extraction Ratio human [10]: 6.5; functional behaviour in hCB2R β-arrestin assay [11]: inverse agonist; hCB2R: beta arrestin efficacy [11]: −18%; EC50 ([11]; read-out: hCB2R: beta arrestin EC50): 0.003 µM; remaining at 2 h [12, 21]: 100%; remaining at 2 h [12, 22]: 99%; remaining at 2 h [12, 23]: 100%; remaining at 2 h [12, 24]: 100%; IC50 ([8]; read-out: IC50 CYP2C9): > 50 µM"
"CC(C)(C)c1nc(N2CC[C@H](O)C2)c2nnn(Cc3nnnn3C3CC3)c2n1 [RO6871304, (3S)-1-{5-tert-butyl-3-[(1-cyclopropyl-1H-tetrazol-5-yl)methyl]-3H-[1,2, 3]triazolo[4,5-d]pyrimidin-7-yl}pyrrolidin-3-ol]",considerably lower,7200,1300,2300,6.0,6.1,5.7,162 ± 2,no adduct,15,94,3.06 10*-6 cm/s,8,62,30,200,> 1800,6.6,0.026,100,"hCB1R beta arrestin EC50/hCB2R beta arrestin EC50 [11]: >1429; remaining at 2 h [12, 21]: 100%; remaining at 2 h [12, 22]: 100%; remaining at 2 h [12, 23]: 99%; remaining at 2 h [12, 24]: 100%; IC50 ([8]; read-out: IC50 CYP2C9): 16 µM"
